The structures appear in SMILES notation.

One compound from patent US9777297B2 (EASEL BIOTECHNOLOGIES, LLC, priority 2011, dated 2017) can be followed below.

In the series the test system is engineered E. coli. The series can be described thus: n-butyraldehyde toxicity incubation test in sealed tube, colony forming units versus time. The format is cell-based. The procedure:
In all cases, including the case in which no addition is made, the number of colony forming units tends to a minimum value (e.g., cells no longer viable) after about 24 hours.

As for `CCCC=O` [n-butyraldehyde], the “change in colony forming units per μL” value was “net increase” (1.0 g/L n-butyraldehyde added, a little after 5 hours); “net decrease” (1.2 g/L and above n-butyraldehyde added, at 4.5 hours).
